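Five concentrations, 48 hours, 96-well plates. Abbreviation: GI50, concentration required for 50% inhibition of growth.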 The source made the active and inactive calls. Rule as the data show it: active = GI50 up to about 1.1 µM and inactive = higher.
Legend:
Test in all cases: NCI-60 cell line screen, 48 h
CAKI-1 = system: CAKI-1
COLO 205 = system: COLO 205
EKVX = system: EKVX
HCC 2998 = system: HCC 2998
HCT-15 = system: HCT-15
HOP-62 = system: HOP-62
HT-29 = system: HT-29
LOX IMVI = system: LOX IMVI
M14 = system: M14
NCI-H460 = system: NCI-H460
OVCAR-5 = system: OVCAR-5
SK-MEL-5 = system: SK-MEL-5
SNB-19 = system: SNB-19
SNB-75 = system: SNB-75
UACC-257 = system: UACC-257
UACC-62 = system: UACC-62
DU-145 = system: DU-145
NCI/ADR-RES = system: NCI/ADR-RES

| Structure (SMILES) | GI50 (CAKI-1) | GI50 (COLO 205) | GI50 (EKVX) | GI50 (HCC 2998) | GI50 (HCT-15) [µM] | GI50 (HOP-62) | GI50 (HT-29) | GI50 (LOX IMVI) | GI50 (M14) | GI50 (NCI-H460) | GI50 (OVCAR-5) | GI50 (SK-MEL-5) | GI50 (SNB-19) | GI50 (SNB-75) | GI50 (UACC-257) | GI50 (UACC-62) | GI50 (DU-145) | GI50 (NCI/ADR-RES) |
| --- | --- | --- | --- | --- | --- | --- | --- | --- | --- | --- | --- | --- | --- | --- | --- | --- | --- | --- |
| COc1nc(=O)cc(N)n1C1OC(CO)C(O)C1O (configuration not stated) | > 100 µM (inactive) | > 100 µM (inactive) | > 100 µM (inactive) | > 100 µM (inactive) | > 100 | > 100 µM (inactive) | > 100 µM (inactive) | > 100 µM (inactive) | > 100 µM (inactive) | > 100 µM (inactive) | > 100 µM (inactive) | > 100 µM (inactive) | > 100 µM (inactive) | > 100 µM (inactive) | > 100 µM (inactive) | > 100 µM (inactive) |  |  |
| c1ccc2c(c1)c1ccccc1c1n[se]nc21 | 36.5 µM (inactive) | > 100 µM (inactive) | 87.9 µM (inactive) |  | > 100 |  | 57 µM (inactive) | > 100 µM (inactive) | > 100 µM (inactive) | 75.3 µM (inactive) | 35.6 µM (inactive) | > 100 µM (inactive) | 35.6 µM (inactive) | 28.1 µM (inactive) | > 100 µM (inactive) | > 100 µM (inactive) |  |  |
| O=C(CSc1nc(-c2ccccc2)c(-c2ccccc2)[nH]1)N/N=C/c1ccc(O)cc1 |  | 19.5 µM (inactive) | 30.1 µM (inactive) | 19.6 µM (inactive) |  | 19.3 µM (inactive) | 18.9 µM (inactive) | 17.9 µM (inactive) | 19 µM (inactive) | 20 µM (inactive) |  |  | 32.5 µM (inactive) | 19.7 µM (inactive) | 4.86 µM (inactive) | 22.1 µM (inactive) |  |  |
| COc1ccc(C2=C(Cl)C(=O)O/C2=C\c2ccc(OC)c(Br)c2)cc1Cl | 36.1 µM (inactive) | > 100 µM (inactive) | 31.6 µM (inactive) | 57.9 µM (inactive) | 55.2 | 14.6 µM (inactive) | > 100 µM (inactive) | 58.9 µM (inactive) | 70.8 µM (inactive) | 27.7 µM (inactive) | 43.5 µM (inactive) | > 100 µM (inactive) | 31.8 µM (inactive) | > 100 µM (inactive) | > 100 µM (inactive) | 22.8 µM (inactive) | 74.6 µM (inactive) | 37.8 µM (inactive) |
| O=S(=O)(/C=C/C(=C/c1ccccc1)S(=O)(=O)c1ccccc1)c1ccccc1 | 1.51 µM (inactive) | 2.16 µM (inactive) | 1.77 µM (inactive) | 1.95 µM (inactive) | 1.51 | 1.94 µM (inactive) | 1.73 µM (inactive) | 0.658 µM (active) | 1.28 µM (inactive) | 1.78 µM (inactive) |  |  | 1.78 µM (inactive) | 1.87 µM (inactive) | 1.55 µM (inactive) | 2.16 µM (inactive) |  |  |
| C[N+](C)(C)CC1CCCC/C1=N\OC(=O)c1ccccc1 (configuration not stated) | > 100 µM (inactive) | > 100 µM (inactive) | > 100 µM (inactive) | > 100 µM (inactive) | > 100 | > 100 µM (inactive) | > 100 µM (inactive) | > 100 µM (inactive) | > 100 µM (inactive) | > 100 µM (inactive) | > 100 µM (inactive) | > 100 µM (inactive) | > 100 µM (inactive) | > 100 µM (inactive) | > 100 µM (inactive) | > 100 µM (inactive) |  |  |
| C/C(CC(=O)Nc1cccc(C)c1C)=N\NC(N)=S | > 100 µM (inactive) | > 100 µM (inactive) | > 100 µM (inactive) | > 100 µM (inactive) | 41.8 | > 100 µM (inactive) | > 100 µM (inactive) | > 100 µM (inactive) | > 100 µM (inactive) | > 100 µM (inactive) | > 100 µM (inactive) | > 100 µM (inactive) | > 100 µM (inactive) | > 100 µM (inactive) | > 100 µM (inactive) | > 100 µM (inactive) |  |  |
| O=C1CCCc2ccc([N+](=O)[O-])c(O)c21 | 37.9 µM (inactive) | > 100 µM (inactive) | > 100 µM (inactive) | > 100 µM (inactive) | 72.9 | > 100 µM (inactive) | > 100 µM (inactive) | > 100 µM (inactive) | > 100 µM (inactive) | > 100 µM (inactive) | 59.8 µM (inactive) | > 100 µM (inactive) | 82.6 µM (inactive) | 45.6 µM (inactive) | > 100 µM (inactive) | 54.6 µM (inactive) |  |  |
| NS(=O)(=O)c1cc2c(cc1Cl)NC(/C(=N/NC(=O)c1ccncc1)C1C(=O)NC(=O)NC1=O)=NS2(=O)=O | > 100 µM (inactive) | > 100 µM (inactive) | > 100 µM (inactive) | > 100 µM (inactive) | > 100 | > 100 µM (inactive) |  | > 100 µM (inactive) | > 100 µM (inactive) | > 100 µM (inactive) | > 100 µM (inactive) | > 100 µM (inactive) | 83.6 µM (inactive) |  | > 100 µM (inactive) | > 100 µM (inactive) |  |  |
| C#CCN(N=O)C(=O)NCCCCC(NC(=O)OCc1ccccc1)C(=O)OCc1ccccc1 (configuration not stated) | 24 µM (inactive) |  | > 100 µM (inactive) | > 100 µM (inactive) | 33.7 | > 100 µM (inactive) | 62.4 µM (inactive) | 14.5 µM (inactive) | 27 µM (inactive) | 98.2 µM (inactive) | > 100 µM (inactive) | 62.4 µM (inactive) | > 100 µM (inactive) | 46.3 µM (inactive) | 37.2 µM (inactive) | 30.6 µM (inactive) |  |  |
| Cc1ccccc1NC(=O)C(=O)C(C#N)c1ccc(Cl)cc1 (configuration not stated) | > 100 µM (inactive) | 31.3 µM (inactive) | > 100 µM (inactive) | 19.6 µM (inactive) | 18.7 | > 100 µM (inactive) | 28.8 µM (inactive) | 17.3 µM (inactive) | 45.9 µM (inactive) | 21.3 µM (inactive) | 54 µM (inactive) | 41.8 µM (inactive) | 63.2 µM (inactive) | > 100 µM (inactive) | > 100 µM (inactive) | 37.4 µM (inactive) |  |  |
| Cc1cc(NS(=O)(=O)c2ccc(Nc3c4ccccc4nc4c(C(=O)Nc5ccc(S(N)(=O)=O)cc5)cccc34)cc2)no1 | > 100 µM (inactive) | 34.8 µM (inactive) | > 100 µM (inactive) |  | > 100 | 35.4 µM (inactive) | > 100 µM (inactive) | 35 µM (inactive) | > 100 µM (inactive) | > 100 µM (inactive) | > 100 µM (inactive) | 63.1 µM (inactive) | 32.7 µM (inactive) | 72.8 µM (inactive) | > 100 µM (inactive) | 24.8 µM (inactive) |  |  |
| COc1ccc(C=O)c(N(C)C(=O)C(C)(C)C)c1 |  | > 100 µM (inactive) | > 100 µM (inactive) | > 100 µM (inactive) | > 100 | > 100 µM (inactive) | > 100 µM (inactive) | > 100 µM (inactive) | > 100 µM (inactive) | > 100 µM (inactive) |  | > 100 µM (inactive) | > 100 µM (inactive) | > 100 µM (inactive) | > 100 µM (inactive) | > 100 µM (inactive) |  |  |
| C=C(c1ccccc1N)[C@@]1(O)C[C@H](/C(=C\C)CO)C[C@@H]1NCc1ccccc1 |  | 16.7 µM (inactive) | 37.1 µM (inactive) | 15.7 µM (inactive) | 29 | 32.7 µM (inactive) | 17.5 µM (inactive) | 17.1 µM (inactive) | 15.2 µM (inactive) | 20.7 µM (inactive) |  | 17.1 µM (inactive) | 23.2 µM (inactive) | 10.8 µM (inactive) | 17.9 µM (inactive) | 28.6 µM (inactive) |  |  |
| Sc1nnc(/C=C/c2ccc(Cl)c(Cl)c2)[nH]1 |  | 0.0202 µM (active) | > 100 µM (inactive) | < 0.01 µM (active) | 87.5 | 41.4 µM (inactive) | > 100 µM (inactive) | > 100 µM (inactive) |  | > 100 µM (inactive) | > 100 µM (inactive) | 44.8 µM (inactive) | > 100 µM (inactive) |  | > 100 µM (inactive) | > 100 µM (inactive) |  |  |
| NNC(=O)/C(=C/c1ccc(Cl)c(Cl)c1)NC(=O)c1ccccc1 |  | > 100 µM (inactive) | > 100 µM (inactive) | > 100 µM (inactive) |  | > 100 µM (inactive) | > 100 µM (inactive) | > 100 µM (inactive) | > 100 µM (inactive) | > 100 µM (inactive) | > 100 µM (inactive) | > 100 µM (inactive) | > 100 µM (inactive) | > 100 µM (inactive) | > 100 µM (inactive) | > 100 µM (inactive) |  |  |
| CC(C)(C)C1CCC2c3c([nH]c4ccccc34)C3C(=O)N(c4ccc(Br)cc4)C(=O)C3C2C1 (configuration not stated) | 19.9 µM (inactive) | 11.1 µM (inactive) | 22 µM (inactive) | < 0.01 µM (active) | 13.7 | 21.6 µM (inactive) | 17.3 µM (inactive) | 15.7 µM (inactive) | 26.1 µM (inactive) | 17.7 µM (inactive) | 23.6 µM (inactive) | 25.8 µM (inactive) | 16.9 µM (inactive) | 19.5 µM (inactive) | 17.8 µM (inactive) | 26.9 µM (inactive) |  |  |
| COC(=O)/C1=C/C2CC(/C=C(/c3ccccc3)C(=O)O1)C2 |  | 19.1 µM (inactive) | 40.3 µM (inactive) |  | 18.8 | 44.2 µM (inactive) | 26.9 µM (inactive) | 17.5 µM (inactive) | 29.2 µM (inactive) | 32.6 µM (inactive) |  | 17.7 µM (inactive) | 35.4 µM (inactive) | 5.93 µM (inactive) | 8.53 µM (inactive) | 14.7 µM (inactive) |  |  |
| Cc1noc2cccc(O)c12 | > 100 µM (inactive) | > 100 µM (inactive) | > 100 µM (inactive) | > 100 µM (inactive) | > 100 | > 100 µM (inactive) | > 100 µM (inactive) | > 100 µM (inactive) | > 100 µM (inactive) | > 100 µM (inactive) | > 100 µM (inactive) | > 100 µM (inactive) | > 100 µM (inactive) | > 100 µM (inactive) | > 100 µM (inactive) | > 100 µM (inactive) |  |  |

Source: ChEMBL document CHEMBL1201862, “PubChem BioAssay data set” (2004)
